The values below come from patent publication US11613531B2, “Inhibitors of RHO associated coiled-coil containing protein kinase” (Kadmon Corporation, LLC, priority 2017, dated 2023).

Structures are written as SMILES. Read-outs that look alike come from different tables or passages of the source.

Test [1] concerns the target Recombinant ROCK1 (amino acids 1-535) (Homo sapiens (Human), UniProt Q13464). The experiment in a line: Z′-Lyte kinase assay, ROCK1. In kind it is biochemical. The method, boiled down:
(§1)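 Recombinant human ROCK1 (aa 1-535) or ROCK2 (aa 1-552) activity read by Z′-Lyte kinase assay. Percent inhibition at 1 μM compound was normalized to DMSO control; IC50 from 9-point 2-fold serial dilutions by nonlinear regression.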

Test [2] deals with Recombinant ROCK2 (amino acids 1-552) (Homo sapiens (Human), UniProt O75116). The experiment in a line: Z′-Lyte kinase assay, ROCK2. In kind it is biochemical. As to conditions: for inhibition at 1 µM: 1 μM compound; for inhibition at 1 µM / inhibition at 0.5 µM: read-out: ROCK2 % inh. @ [conc]; for inhibition at 0.5 µM: 0.5 μM compound. The method, boiled down:
as §1

Test [3] relates to ppMlc (T18/S19) levels in A7R5 cells. The experiment in a line: A7R5 in-cell ELISA (pMLC). In kind it is cell-based, Rat. As to conditions: Rattus norvegicus, A7R5, A7R5 cells; for inhibition at 1 µM: 1 μM compound, read-out: pMLC % inh A7R5 @ [conc]. The method, boiled down: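 A7R5 rat aortic smooth muscle cells seeded 24 h, then treated 90 min with a 9-point 2-fold compound dilution series. Fixed cells probed for ppMlc (T18/S19) by colorimetric in-cell ELISA; cellular IC50 from nonlinear regression curve fit.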

Test [4] deals with human ACTA2 gene promoter luciferase reporter in NIH3T3 cells. Briefly: NIH3T3 Acta2-promoter driven-luciferase assay. In kind it is cell-based. As to conditions: NIH3T3, 24 h, read-out: NIH3T3 Acta2-luc, IC50. The protocol:
NIH3T3 Cells Acta2-Promoter Driven-Luciferase Assay.
A NIH3T3 cell line stably expressing a luciferase reporter driven by the human ACTA2 gene promoter (−1000-1 bp) was established (NIH3T3-Acta2-luciferase). The cells were plated to confluence and treated with the test compounds plus TGFβ1 for 24 hr. Cells were then lysed and luciferase activity was measured using the LightSwitch luciferase kit from Active Motif.
In vitro activities for the compounds were measured with Z′-lyte kinase kit (ThermoFisher Scientific). The percent inhibition rate was calculated by normalizing the kinase activity value obtained with 1 μM compound treatment against DMSO control value and then applied to the formula, [1-(compound/DMSO)]×100%. IC50s were calculated using the nonlinear regression curve fit function of the GraphPad Prism software with kinase activities data measured with 9 points 2-fold serial dilution of compounds treatment. In cell pMLC IC50s were calculated with data obtained from A7R5 cell experiments. A7R5 cells were treated with 9 points 2-fold serial dilution of compounds and ppMlc (T18/S19) levels were determined to calculate cellular IC50 values of the compounds using the nonlinear regression curve fit function of the GraphPad Prism software. NIH3T3 cells stably expressing ACTA2-promoter-driven-luciferase were applied to measure ROCK compounds functional IC50s in cells. Cells were plated in 96 well plates to confluence and treated with 9 points serial dilution of compounds in combination with TGFβ1 for 24 hr. Luciferase activities were measured and compound's IC50s were calculated using the nonlinear regression curve fit function of the GraphPad Prism software.
ROCK inhibitors can be effectively rank ordered by ACTA2-promoter-driven-luciferase reporter cell assay. NIH3T3 cells stably expressing ACTA2-promoter-driven-luciferase were plated in 96 well plates to confluence and treated with 9 points serial dilution of compounds in combination with TGFβ1 for 24 hr. Luciferase activities were measured and compound's IC50s were calculated. By this assay multiple compounds of the invention gave IC50s under 200 nM.

[5] abbreviates: 9 points 2-fold serial dilution.
Where [6] appears, read: NIH3T3 cells, plus TGFβ1 for 24 hr.

Chain of Recombinant ROCK2 (amino acids 1-552) (O75116 1-552): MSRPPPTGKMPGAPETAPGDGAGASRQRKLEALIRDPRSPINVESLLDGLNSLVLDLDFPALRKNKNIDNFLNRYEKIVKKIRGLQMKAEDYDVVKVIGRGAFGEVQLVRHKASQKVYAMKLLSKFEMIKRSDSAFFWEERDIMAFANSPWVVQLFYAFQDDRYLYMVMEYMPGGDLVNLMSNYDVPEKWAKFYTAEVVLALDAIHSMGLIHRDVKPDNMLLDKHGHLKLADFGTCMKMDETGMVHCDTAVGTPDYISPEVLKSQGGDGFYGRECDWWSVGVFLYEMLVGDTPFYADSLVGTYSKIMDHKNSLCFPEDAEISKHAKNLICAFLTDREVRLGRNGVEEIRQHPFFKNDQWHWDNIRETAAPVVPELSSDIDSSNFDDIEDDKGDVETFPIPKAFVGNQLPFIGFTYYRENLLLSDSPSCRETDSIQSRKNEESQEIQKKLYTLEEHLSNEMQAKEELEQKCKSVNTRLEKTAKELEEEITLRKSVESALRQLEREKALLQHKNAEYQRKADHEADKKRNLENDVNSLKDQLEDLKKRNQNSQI
Chain of Recombinant ROCK1 (amino acids 1-535) (Q13464 1-535): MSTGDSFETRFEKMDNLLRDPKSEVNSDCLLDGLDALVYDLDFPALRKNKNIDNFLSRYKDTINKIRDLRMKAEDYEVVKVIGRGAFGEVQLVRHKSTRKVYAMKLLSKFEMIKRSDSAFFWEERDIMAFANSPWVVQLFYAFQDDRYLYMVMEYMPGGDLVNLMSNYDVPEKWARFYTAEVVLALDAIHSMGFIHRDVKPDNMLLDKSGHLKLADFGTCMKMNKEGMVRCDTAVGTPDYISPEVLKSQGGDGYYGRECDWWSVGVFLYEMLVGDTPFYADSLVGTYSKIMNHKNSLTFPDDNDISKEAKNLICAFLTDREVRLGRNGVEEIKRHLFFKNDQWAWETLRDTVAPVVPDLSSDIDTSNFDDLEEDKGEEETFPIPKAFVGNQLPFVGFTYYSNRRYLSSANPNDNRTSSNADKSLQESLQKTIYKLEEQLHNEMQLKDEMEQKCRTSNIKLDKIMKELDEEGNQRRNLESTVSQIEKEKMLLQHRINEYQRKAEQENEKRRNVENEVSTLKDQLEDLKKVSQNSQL

As for `Cc1nc(N2C3CCC2CNC3)nc(Nc2ccc3[nH]ncc3c2)c1C` [Example 29, N-(2-(3,8-diazabicyclo[3.2.1]octan-8-yl)-5,6-dimethylpyrimidin-4-yl)-1H-indazol-5-amine], the IC50 (as a rule, the concentration that gives 50% inhibition) in test [1] came out at 42 nM; in test [3] it was 147 nM; in test [4] (with TGFβ1, 24 hr), 1090 nM. Moreover, the inhibition at 1 µM in test [2] worked out at 102%; in test [3] it was 39.1%.

As for `Cc1cc(Nc2ccc3[nH]ncc3c2)nc(N2CCCNCC2C)n1` (stereo not shown) [Example 117, N-(6-methyl-2-(2-methyl-1,4-diazepan-1-yl)pyrimidin-4-yl)-1H-indazol-5-amine], the IC50 in test [1] (setting [5]) was 15 nM; in test [2] (setting [5]), 45 nM; in test [3] (ppMlc (T18/S19)), 168 nM; in test [4] (setting [6]) it was 1270 nM. Also, in test [3], the inhibition at 1 µM was found to be 50.6%.

Consider `Clc1cnc(N2CC3CC2CN3)nc1Nc1ccc2[nH]ncc2c1` (stereo not shown) [Example 194, N-(2-(2,5-diazabicyclo[2.2.1]heptan-2-yl)-5-chloropyrimidin-4-yl)-1H-indazol-5-amine], for which the concentration for half-maximal inhibition (IC50) in test [1] (setting [5]) was determined as 41 nM; in test [2] (setting [5]), 23 nM; in test [3] (ppMlc (T18/S19)), 176 nM; in test [4] (setting [6]), 1540 nM. The inhibition at 1 µM in test [2] is 98.3%; in test [3] it was 31.6%.

On to `COc1cnc(N2C3CCC2CNC3)nc1Nc1ccc2[nH]ncc2c1` [Example 198, N-(2-(3,8-diazabicyclo[3.2.1]octan-8-yl)-5-methoxypyrimidin-4-yl)-1H-indazol-5-amine], for which the 50% inhibitory concentration (IC50) in test [1] amounted to 4.1 nM; in test [2] it was 5 nM; in test [3], 57 nM; in test [4] (with TGFβ1, 24 hr), 413 nM. Also, the inhibition at 1 µM in test [2] was 104%; in test [3], 38%.

For the compound `COc1cc2[nH]ncc2cc1Nc1nc(N2C3CCC2CNC3)ncc1Cl` [Example 305, N-(2-(3,8-diazabicyclo[3.2.1]octan-8-yl)-5-chloropyrimidin-4-yl)-6-methoxy-1H-indazol-5-amine], the IC50 in test [2] came out at 160 nM; in test [3], 1410 nM; in test [4] (with TGFβ1, 24 hr), 3810 nM. In addition, the inhibition at 0.5 µM in test [2] was found to be 83%.

On to `c1cc2[nH]ncc2cc1Nc1nc(N2C3CNCC2C3)nc2c1COCC2` [Example 307, 2-(3,6-diazabicyclo[3.1.1]heptan-6-yl)-N-(1H-indazol-5-yl)-7,8-dihydro-5H-pyrano[4,3-d]pyrimidin-4-amine], for which the IC50 in test [2] amounted to 2.6 nM; in test [3], 977 nM; in test [4] (with TGFβ1, 24 hr), 2050 nM.

For the compound `c1cc2[nH]ncc2cc1Nc1nc(N2C3CNCC2C3)ncc1C1CC1` [Example 308, N-(2-(3,6-diazabicyclo[3.1.1]heptan-6-yl)-5-cyclopropylpyrimidin-4-yl)-1H-indazol-5-amine], the half-inhibitory concentration (IC50) in test [2] was determined as 15 nM; in test [3] it was 377 nM; in test [4] (with TGFβ1, 24 hr), 1240 nM.

Consider `c1cc2[nH]ncc2cc1Nc1nc(N2C3CCC2CNC3)ncc1C1CC1` [Example 309, N-(2-(3,8-diazabicyclo[3.2.1]octan-8-yl)-5-cyclopropylpyrimidin-4-yl)-1H-indazol-5-amine], for which the IC50 in test [2] came to 117 nM; in test [3], 917 nM; in test [4] (with TGFβ1, 24 hr) it was 3330 nM.

Consider `c1cc2[nH]ncc2cc1Nc1nc(N2C3CNCC2C3)nc2c1CNC2` [Example 310, 2-(3,6-diazabicyclo[3.1.1]heptan-6-yl)-N-(1H-indazol-5-yl)-6,7-dihydro-5H-pyrrolo[3,4-d]pyrimidin-4-amine], for which the IC50 in test [2] was 3.8 nM; in test [3], over 5000 nM; in test [4] (with TGFβ1, 24 hr), over 5000 nM.

Consider `Cc1c(Cl)nc(N2C3CCC2CNC3)nc1Nc1ccc2[nH]ncc2c1` [Example 315, N-(2-(3,8-diazabicyclo[3.2.1]octan-8-yl)-6-chloro-5-methylpyrimidin-4-yl)-1H-indazol-5-amine], for which the half-inhibitory concentration (IC50) in test [2] was 26 nM; in test [3] it was 168 nM; in test [4] (with TGFβ1, 24 hr) it was 1950 nM.

For `COc1nc(N2C3CCC2CNC3)nc(Nc2ccc3[nH]ncc3c2)c1F` [Example 319, N-(2-(3,8-diazabicyclo[3.2.1]octan-8-yl)-5-fluoro-6-methoxypyrimidin-4-yl)-1H-indazol-5-amine], the inhibition at 0.5 µM in test [1] (0.5 μM compound, read-out: ROCK1 % inh. @ [conc]) worked out at 98%; in test [2], 100%. Also, the half-inhibitory concentration (IC50) in test [2] was 1.1 nM; in test [4] (with TGFβ1, 24 hr), 59 nM.

Consider `Fc1cnc(N2CC3CNCC(C2)O3)nc1Nc1ccc2[nH]ncc2c1` [Example 324, N-(2-((1,5)-9-oxa-3,7-diazabicyclo[3.3.1]nonan-3-yl)-5-fluoropyrimidin-4-yl)-1H-indazol-5-amine], for which the IC50 worked out at 268 nM in test [2]; 2080 nM in test [3]; 1370 nM in test [4] (with TGFβ1, 24 hr). In addition, the inhibition at 0.5 µM in test [2] came out at 71%.

For the compound `CCN(C)c1cc(Nc2ccc3[nH]ncc3c2)nc(N2C3CCC2CNC3)n1` [Example 332, 2-(3,8-diazabicyclo[3.2.1]octan-8-yl)-N4-ethyl-N6-(1H-indazol-5-yl)-N4-methylpyrimidine-4,6-diamine], the IC50 in test [2] stood at 1.2 nM; in test [3], 18 nM; in test [4] (with TGFβ1, 24 hr) it was 80 nM.

On to `Cc1c(C#N)nc(N2C3CCC2CNC3)nc1Nc1ccc2[nH]ncc2c1` [Example 333, 6-((1H-indazol-5-yl)amino)-2-(3,8-diazabicyclo[3.2.1]octan-8-yl)-5-methylpyrimidine-4-carbonitrile], for which the IC50 stood at 44 nM in test [2]; 577 nM in test [3]; 1600 nM in test [4] (with TGFβ1, 24 hr).

For the compound `CNC1CC2CC1CN2c1ncc(F)c(Nc2ccc3[nH]ncc3c2)n1` (stereo not shown) [Example 334, N-(5-fluoro-2-(5-(methylamino)-2-azabicyclo[2.2.1]heptan-2-yl)pyrimidin-4-yl)-1H-indazol-5-amine], the IC50 in test [2] turned out to be 121 nM; in test [3], 889 nM; in test [4] (with TGFβ1, 24 hr), 1650 nM.

For `FC(F)(F)c1nc(N2C3CCC2CNC3)nc(Nc2ccc3[nH]ncc3c2)c1Cl` [Example 340, N-(2-(3,8-diazabicyclo[3.2.1]octan-8-yl)-5-chloro-6-(trifluoromethyl)pyrimidin-4-yl)-1H-indazol-5-amine], the IC50 in test [2] was 20 nM; in test [3], 362 nM; in test [4] (with TGFβ1, 24 hr) it was 894 nM.

In the case of `FC(F)(F)c1cc(Nc2ccc3[nH]ncc3c2)nc(N2C3CCC2CNC3)n1` [Example 341, N-(2-(3,8-diazabicyclo[3.2.1]octan-8-yl)-6-(trifluoromethyl)pyrimidin-4-yl)-1H-indazol-5-amine], the IC50 in test [2] worked out at 5.8 nM; in test [3] it was 27 nM; in test [4] (with TGFβ1, 24 hr) it was 58 nM.

Turning to `CN(C)c1nc(N2C3CCC2CNC3)nc(Nc2ccc3[nH]ncc3c2)c1F` [Example 342], the half-inhibitory concentration (IC50) in test [2] was determined as 0.1 nM; in test [3], 26 nM; in test [4] (with TGFβ1, 24 hr), 1950 nM.

Turning to `Cc1nc(N2C3CCC2CNC3)nc(Nc2ccc3[nH]ncc3c2)c1C#N` [Example 343, 4-((1H-indazol-5-yl)amino)-2-(3,8-diazabicyclo[3.2.1]octan-8-yl)-6-methylpyrimidine-5-carbonitrile], the IC50 came out at 5.6 nM in test [2]; 127 nM in test [3]; 223 nM in test [4] (with TGFβ1, 24 hr).

In the case of `CN(C)c1nc(N2C3CCC2CNC3)nc(Nc2ccc3[nH]ncc3c2)c1Cl` [Example 344, 2-(3,8-diazabicyclo[3.2.1]octan-8-yl)-5-chloro-N^4-(1H-indazol-5-yl)-N^6,N^6-dimethylpyrimidine-4,6-diamine], the IC50 in test [2] stood at 1.7 nM; in test [3] it was 82 nM; in test [4] (with TGFβ1, 24 hr) it was 192 nM.
